Laboratory results as given in US10227323B2, “Glucosylceramide synthase inhibitors for the treatment of diseases” (BIOMARIN PHARMACEUTICAL INC., priority 2013, dated 2019).

Target: T1, GCS (Canis lupus familiaris, UniProt A0A8I3MXG6)
T1 sequence (A0A8I3MXG6 1-394): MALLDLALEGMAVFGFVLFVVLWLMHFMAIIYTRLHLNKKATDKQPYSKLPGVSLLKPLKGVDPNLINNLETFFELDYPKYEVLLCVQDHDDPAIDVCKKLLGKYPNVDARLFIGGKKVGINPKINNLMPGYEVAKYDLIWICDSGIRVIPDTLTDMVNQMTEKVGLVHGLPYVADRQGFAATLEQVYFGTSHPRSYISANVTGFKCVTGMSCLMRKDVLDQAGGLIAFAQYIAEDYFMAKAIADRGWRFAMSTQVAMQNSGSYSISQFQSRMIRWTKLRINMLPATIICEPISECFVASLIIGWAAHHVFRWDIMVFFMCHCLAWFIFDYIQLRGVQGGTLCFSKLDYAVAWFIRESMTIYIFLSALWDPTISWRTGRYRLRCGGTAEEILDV
Assay: Assay 1: GCS Enzymatic Assay (MDCK cell lysate, C6-NBD-Ceramide, LC/MS)
Assay type: biochemical, canine
Conditions: Table 2; for % inhibition generated from Assay 1: data marked by *; for IC50: data without asterisk, read-out: IC50 (nM) generated from Assay 1
Outline: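 LC/MS/MS measurement of glucosylceramide and NBD-ceramide after a 1 h, 37 °C reaction with 100 μM UDP-glucose and 10 μM C6-NBD-ceramide gave IC50s or percent inhibition.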

IC50 [nM]	SMILES	% inhibition generated from Assay 1
–	CN1CCC(Oc2ccc([C@@H](O)[C@@H](CN3CCCC3)NC(=O)C(F)(F)CCc3ccc4ccccc4c3)cc2Cl)CC1 [Compound 121, N-((1R,2R)-1-(3-chloro-4-((l-methylpiperidin-4-yl)oxy)phenyl)-1-hydroxy-3-(pyrrolidin-1-yl)propan-2-yl)-2,2-difluoro-4-(naphthalen-2-yl)butanamide]	B* (the compound had a % inhibition of greater than or equal to about 3% but less than about 50%)
–	O=C(N[C@H](CN1CCC1)[C@H](O)c1ccc(OC2CC2)c(Cl)c1)C(=O)c1cc2cc(Cl)ccc2o1 [Compound 122, N-((1R,2R)-3-(azetidin-1-yl)-1-(3-chloro-4-cyclopropoxyphenyl)-1-hydroxypropan-2-yl)-2-(5-chlorobenzofuran-2-yl)-2-oxoacetamide]	A* (the compound had a % inhibition of a percent inhibition of greater than or equal to about 50%)
–	CN1CCC(Oc2ccc([C@@H](O)[C@@H](CN3CCCC3)NC(=O)C(F)(F)c3cc4cc(Cl)ccc4o3)cc2Cl)CC1 [Compound 123, N-((1R,2R)-1-(3-chloro-4-((l-methylpiperidin-4-yl)oxy)phenyl)-1-hydroxy-3-(pyrrolidin-1-yl)propan-2-yl)-2-(5-chlorobenzofuran-2-yl)-2,2-difluoroacetamide]	A* (the compound had a % inhibition of a percent inhibition of greater than or equal to about 50%)
< 50	O=C(N[C@H](CN1CCCC1)[C@H](O)c1ccc(OC2CC2)c(F)c1)C(F)(F)CCc1ccc2ccccc2c1 [Compound 125, N-((1R,2R)-1-(4-cyclopropoxy-3-fluorophenyl)-1-hydroxy-3-(pyrrolidin-1-yl)propan-2-yl)-2,2-difluoro-4-(naphthalen-2-yl)butanamide]	–
< 50	O=C(N[C@H](CN1CCCC1)[C@H](O)c1ccc(OC2CC2)c(F)c1)C(F)(F)c1cc2cc(Cl)ccc2o1 [Compound 126, 2-(5-chlorobenzofuran-2-yl)-N-((1R,2R)-1-(4-cyclopropoxy-3-fluorophenyl)-1-hydroxy-3-(pyrrolidin-1-yl)propan-2-yl)-2,2-difluoroacetamide]	–
50 to 5000	O=C(N[C@H](CN1CCCC1)[C@H](O)c1ccc(N2CCOCC2)c(Cl)c1)C(F)(F)c1cc2cc(Cl)ccc2o1 [Compound 127, N-((1R,2R)-1-(3-chloro-4-morpholinophenyl)-1-hydroxy-3-(pyrrolidin-1-yl)propan-2-yl)-2-(5-chlorobenzofuran-2-yl)-2,2-difluoroacetamide]	–
< 50	O=C(N[C@H](CN1CCCC1)[C@H](O)c1ccc(OCCN2CCC2)c(Cl)c1)C(F)(F)c1cc2cc(Cl)ccc2o1 [Compound 128, N-((1R,2R)-1-(4-(2-(azetidin-1-yl)ethoxy)-3-chlorophenyl)-1-hydroxy-3-(pyrrolidin-1-yl)propan-2-yl)-2-(5-chlorobenzofuran-2-yl)-2,2-difluoroacetamide]	–
< 50	O=C(N[C@H](CN1CCCC1)[C@H](O)c1ccc(OC2COC2)c(Cl)c1)C(F)(F)CCc1ccc2ccccc2c1 [Compound 129, N-((1R,2R)-1-(3-chloro-4-(oxetan-3-yloxy)phenyl)-1-hydroxy-3-(pyrrolidin-1-yl)propan-2-yl)-2,2-difluoro-4-(naphthalen-2-yl)butanamide]	–
< 50	O=C(N[C@H](CN1CCCC1)[C@H](O)c1ccc(OC2COC2)c(Cl)c1)C(F)(F)c1cc2cc(Cl)ccc2o1 [Compound 130, N-((1R,2R)-1-(3-chloro-4-(oxetan-3-yloxy)phenyl)-1-hydroxy-3-(pyrrolidin-1-yl)propan-2-yl)-2-(5-chlorobenzofuran-2-yl)-2,2-difluoroacetamide]	–
–	O=C(N[C@H](CN1CCCC1)[C@H](O)c1ccc(OCCN2CCC2)c(Cl)c1)C(F)(F)CCc1ccc2ccccc2c1 [Compound 131, N-((1R,2R)-1-(4-(2-(azetidin-1-yl)ethoxy)-3-chlorophenyl)-1-hydroxy-3-(pyrrolidin-1-yl)propan-2-yl)-2,2-difluoro-4-(naphthalen-2-yl)butanamide]	A* (the compound had a % inhibition of a percent inhibition of greater than or equal to about 50%)
< 50	O=C(N[C@H](CN1CCCC1)[C@H](O)c1ccc2c(c1)OCCO2)C(F)(F)c1ccc2cc(Cl)ccc2c1 [Compound 132, 2-(6-chloronaphthalen-2-yl)-N-((1R,2R)-1-(2,3-dihydrobenzo[b][1,4]dioxin-6-yl)-1-hydroxy-3-(pyrrolidin-1-yl)propan-2-yl)-2,2-difluoroacetamide]	–
< 50	O=C(N[C@H](CN1CCCC1)[C@H](O)c1cc(F)c2c(c1)OCCO2)C(=O)c1ccc(-c2ccc(F)cc2)cc1 [Compound 133, N-((1R,2R)-1-(8-fluoro-2,3-dihydrobenzo[b][1,4]dioxin-6-yl)-1-hydroxy-3-(pyrrolidin-1-yl)propan-2-yl)-2-(4′-fluoro-[1,1′-biphenyl]-4-yl)-2-oxoacetamide]	–
–	O=C(N[C@H](CN1CCC1)[C@H](O)c1ccc(OC2CC2)c(Cl)c1)C(F)(F)CCc1ccc2cc(F)ccc2c1 [Compound 134, N-((1R,2R)-3-(azetidin-1-yl)-1-(3-chloro-4-cyclopropoxyphenyl)-1-hydroxypropan-2-yl)-2,2-difluoro-4-(6-fluoronaphthalen-2-yl)butanamide]	A* (the compound had a % inhibition of a percent inhibition of greater than or equal to about 50%)
< 50	O=C(N[C@H](CN1CCCC1)[C@H](O)c1cc(F)c2c(c1)OCCO2)C(F)(F)c1ccc2cc(Cl)ccc2c1 [Compound 135, 2-(6-chloronaphthalen-2-yl)-2,2-difluoro-N-((1R,2R)-1-(8-fluoro-2,3-dihydrobenzo[b][1,4]dioxin-6-yl)-1-hydroxy-3-(pyrrolidin-1-yl)propan-2-yl)acetamide]	–
< 50	O=C(N[C@H](CN1CCCC1)[C@H](O)c1ccc(OC2CC2)c(Cl)c1)/C(=N/O)c1cc2cc(Cl)ccc2o1 [Compound 136, (E)-N-((1R,2R)-1-(3-chloro-4-cyclopropoxyphenyl)-1-hydroxy-3-(pyrrolidin-1-yl)propan-2-yl)-2-(5-chlorobenzofuran-2-yl)-2-(hydroxyimino)acetamide]	–
–	O=C(N[C@H](CN1CCC1)[C@H](O)c1ccc(OC2CC2)c(Cl)c1)/C(CCc1ccc2cc(F)ccc2c1)=N/O [Compound 137, (E)-N-((1R,2R)-3-(azetidin-1-yl)-1-(3-chloro-4-cyclopropoxyphenyl)-1-hydroxypropan-2-yl)-4-(6-fluoronaphthalen-2-yl)-2-(hydroxyimino)butanamide]	B* (the compound had a % inhibition of greater than or equal to about 3% but less than about 50%)
< 50	O=C(N[C@H](CN1CCCC1)[C@H](O)c1cc(F)c2c(c1)OCCO2)/C(=N/O)c1ccc(-c2ccc(F)cc2)cc1 [Compound 138, (E)-N-((1R,2R)-1-(8-fluoro-2,3-dihydrobenzo[b][1,4]dioxin-6-yl)-1-hydroxy-3-(pyrrolidin-1-yl)propan-2-yl)-2-(4′-fluoro-[1,1′-biphenyl]-4-yl)-2-(hydroxyimino)acetamide]	–
–	O=C(N[C@H](CN1CCCC1)[C@H](O)c1ccc(OC2CC2)c(Cl)c1)C(F)(F)c1ccc2cc(Cl)ccc2c1 [Compound 139, N-((1R,2R)-1-(3-chloro-4-cyclopropoxyphenyl)-1-hydroxy-3-(pyrrolidin-1-yl)propan-2-yl)-2-(6-chloronaphthalen-2-yl)-2,2-difluoroacetamide]	A* (the compound had a % inhibition of a percent inhibition of greater than or equal to about 50%)
